Patent publication EP0289604A1, “2-METHYLMERCAPTO-3-CYANO-4-(O-DIFLUOROMETHOXYPHENYL)-6-PHENYL-1,4-DIHYDROPYRIDINE” (INSTITUT ORGANICHESKOGO SINTEZA AKADEMII NAUK LATVIISKOI SSR, priority 1986, dated 1988)

What was measured:
[1] = test system: spontan hypertensiven Ratten (SHR); assay: Hypotensive effect in spontaneously hypertensive rats, single intragastric administration; assay type: in vivo; details: for Der hypotensive Effekt, % an SHR nach 48 Stunden: after 48 hours; for Dauer der hypotensiven Wirkung: single intragastric dose 10 mg/kg (similar dose for comparators), time over which the effect is detected or after which it ends
[2] = test system: spontan hypertensiven Ratten; assay: Hypotensive effect in spontaneously hypertensive rats, repeated intragastric administration for 10 days; assay type: in vivo; details: SHR
in vivo = details: mouse, ip, white outbred mice, intraperitoneal administration
[3] = Solubility and stability of the substance; assay type: physicochemical
Protocol: Die genannte Verbindung stellt eine kristalline Substanz vom 128 bis I30°C Schm.p. dar. […] Diese Verbindung ist sowohl in kristallinem Zustand als auch in Porm von Lösungen in organischen Lösungsmitteln stabil.

[4] = dose 10 mg/kg, single intragastric administration, after 6 hours
[5] = dose 10 mg/kg, single intragastric administration

| Structure (SMILES) | Der hypotensive Effekt, % an SHR nach 6 Stunden [1, 4] [%] | Der hypotensive Effekt, % an SHR nach 48 Stunden [1, 5] [%] | Dauer der hypotensiven Wirkung [1] [Stunden] | systolische Blutdruck herabgesetzt ([1]; single intragastric dose 10 mg/kg, after 6 hours) [%] | Effekt der Senkung des systolischen arteriellen Blutdrucks, Zeit nach der Einführung ([1]; single intragastric dose 10 mg/kg, onset of effect) [Minuten] | systolische Blutdruck herabgesetzt zum 10. Einführungstag ([2]; 10 mg/kg intragastric once daily for 10 days) [%] | arterielle Blutdruck erreichte das Ausgangsniveau nach dem Aufhören der Einführung ([2]; after stopping 10 mg/kg intragastric once daily for 10 days) [Tagen] | LD50 (in vivo) [mg/kg] | Stabilität ([3]; in crystalline state and as solutions in organic solvents) | Löslichkeit in Methyl-, Äthylalkohol, Azeton, Chloroform ([3]; organic solvents) | Löslichkeit in Wasser ([3]; water) | Der hypotensive Effekt, % an SHR nach I Stunden ([1]; dose 10 mg/kg, single intragastric administration, after 1 hour) [%] | Der hypotensive Effekt, % an SHR nach 24 Stunden ([1]; dose 10 mg/kg, single intragastric administration, after 24 hours) [%] |
| --- | --- | --- | --- | --- | --- | --- | --- | --- | --- | --- | --- | --- | --- |
| CSC1=C(C#N)C(c2ccccc2OC(F)F)C=C(c2ccccc2)N1 (stereo not shown) [Die erfindungsgemässe Verbindung, 2-Methylmerkapto-3-zyano-4-(o-difluormethoxyphenyl)-6-phenyl-I,4-dihydropyridin] | 24 | 6 | ≤ 48 | 21 | 30 | 26 | ≤ 3 | > 5000 | stabil | gut löslich | praktisch unlöslich | – | – |
| COC(=O)C1=C(C)NC(C)=C(C(=O)OC)C1c1ccccc1[N+](=O)[O-] [Nifedipine, 2,6-Dimethyl-3,5-dimethoxykarbonyl-4-(o-nithophenyl)-I,4-di-hydropyridin, reference compound] | 23 | 0 | 6 | – | – | – | – | – | – | – | – | 34 | 0 |
